US20220282304A1, “SAME-SAMPLE ANTIBIOTIC SUSCEPTIBILITY TEST AND RELATED COMPOSITIONS, METHODS AND SYSTEMS” (CALIFORNIA INSTITUTE OF TECHNOLOGY, priority 2021, published 2022)

Test system: Escherichia coli isolate
Test: Digital same-sample filtration AST, one treated and one concurrent reference condition (Example 5)
Type: cell-based
Conditions: 1.0 μg/mL ETP; for lysed cells detected: all detected treated cells lysed
Experimental: The inoculum was small enough that no detectable difference in the sample's optical density at 600 mm (OD600) was detectable by a spectrophotometer with a sensitivity of 0.01 absorbance units. After an incubation at 37° C., the media became turbid with an OD600 of 0.18 absorbance units after 3 hours of incubation.
In this experiment, the number and volume of sample partitions was restricted, for logistical reasons, to 96 partitions 10 μL, in volume, specifically the wells of a 96-well plate. A goal was chosen of having a >98% chance of ending up with at least 48 empty partitions. When all partitions are the same volume, the following formula relates the expected number of empty partitions, the partition volume, and the density of cells.
N is the total number of partitions, n is the number of empty partitions, V is the partition volume, D is the density of cells, and t is a threshold probability chosen by the practitioner. Thus, in order to achieve digital sample partitioning with the available 96-well plate, the contrived clinical specimen was diluted to a cell density of 0.0375 cells/μL. Each 10 μL sample of the specimen would then contain 0.375 cells on average.
To begin the AST protocol, the contrived clinical specimen was physically split into the 96 partitions by transferring 10 μL of the sample, in 96 separate transfers (actually 12 transfers with a multichannel pipette), to 96 wells of a microtiter plate. Each well contained 15 μL of Mueller-Hinton Broth (MHB) growth media. Half of the wells (48) contained 0 μg/mL of dissolved ETP antibiotic and served as reference condition antibiotic exposures. The other half of the wells contained 1.67 μg/mL of ETP (for a final concentration of 1.0 μg/mL) and served as 48 treated condition antibiotic exposures. The 96 antibiotic exposures were incubated at 37° C. for 70 minutes.
The entire volume of each antibiotic exposure was transferred to a Millipore® 96-well sterile polystyrene MultiScreenHTS® filter plate (Millipore-Sigma MSGVS2210). Each well of the filter plate contained a hydrophilic polyvinylidene fluoride (PVDF) filter membrane with a 0.22 μm pore size. The antibiotic exposures were centrifuged at 2200 relative centrifugal force to speed the passage of the antibiotic exposure through the filter and into 96 collecting vessels. The collected fluid was called the “filtrate.”
50 μL of fresh MHB media was spun through the filters after the first centrifugation (above) to wash away residual extracellular nucleic acids present in the fluid wetting the filters. This wash fluid is not collected with the filtrates.
10 μL of each of the filtrates was added to and mixed with 10 μL of Lucigen DNA Extraction Buffer, heated to 65° C. for 6 minutes, then heated to 98° C. for 4 minutes.
20 μL of DNA Extraction Buffer was placed on top of the filters. The filter plate was heated to 65° C. for 6 minutes, shaking at 700 rpm, on a ThermoMixer® flat surface heating block. Then, the filter plate was taped to a clean 96-well polypropylene microtiter plate and centrifuged at 2000 rcf for 2 minutes. The DNA Extraction Buffer fluid that flowed through the filter was collected in the microtiter plate below the filter plate. Next, the microtiter plate was heated to 98° C. for 4 minutes inside a BioRad thermocycler. These collected and heated fluid volumes are termed the “lysates” which comprise intracellular nucleic acid.
Separately, for each of the 96 extracted filtrates and for each of the 96 extracted lysates, 1.00 μL of the extracted filtrate was mixed with 0.02 μL of 3 U/mL Lucigen® RapiDxFire thermostable reverse transcriptase, 0.2 μL of Lucigen® RapiDxFire 10× thermostable buffer, 0.1 μL of 10 mM deoxyribonucleic acid nucleotides, 0.6 μL of deionized water, and 0.08 μL of a 10 μM aqueous solution of DNA primer, according to manufacturer's instructions, to create a reverse transcription reaction with a total volume of 2.0 μL. […]

C[C@@H](O)[C@H]1C(=O)N2C(C(=O)O)=C(S[C@@H]3CN[C@H](C(=O)Nc4cccc(C(=O)O)c4)C3)[C@H](C)[C@H]12 [ETP, ertapenem]
percent extracellular of detected antibiotic-treated cells (lysis) (70 minutes 37° C., qPCR 23S rRNA, 96 partitions): 100%
susceptibility call (Fisher's exact test) (70 minutes, ddPCR): susceptible
percent extracellular of detected antibiotic-treated cells (lysis) (70 minutes, ddPCR 23S rRNA, 56 of the 96 partitions): 100%
lysed cells detected (70 minutes, ddPCR, 56 of the 96 partitions): 9
susceptibility call (Fisher's exact test) (70 minutes, qPCR): susceptible
lysed cells detected (70 minutes, qPCR, of the 96 partitions): 19
